The values below come from patent US9072775B2, “Fluorescent emulsions for optical imaging” (priority 2007, dated 2015).

Each structure is given as a SMILES string.

For data set [1] the following is noted: in ethanol; cited from earlier work.
The nature of data set [2]: Quantum yield of fluorescence relative to a reference standard. The data set is classed as physicochemical. As to conditions: In solution in MeOH; reference Nile Blue perchlorate in ethanol. How it is done: The quantum yield of fluorescence (Φ) is expressed by the following equation: (Φ)=(number of photons emitted)/(number of photons absorbed).
(§1) It is common practice to determine a quantum yield relative to that of a reference standard, by the techniques known to those skilled in the art. The quantum yield of this formulation was calculated by comparison with a reference standard sample (Nile Blue perchlorate in ethanol, sold by Invitrogen) having a known quantum yield value equal to 0.27. The same measurements (carried out using a Varian spectrophotometer, model Cary 300 and a Perkin Elmer spectrofluorimeter, model LS 50) and calculations were carried out for a solution of DiD fluorophore in methanol (MeOH).

Data set [3] in a line: Absorption and emission spectra. As to conditions: In solution in MeOH. The class given is physicochemical. On the procedure:
as §1

Data set [4] is described as follows: Fluorescence lifetime from time-resolved fluorescence decay. The class given is physicochemical. The settings on record: pulsed excitation 740 nm. How it is done:
The fluorescence decays of the fluorophore free in solution in methanol or encapsulated in the lipid nanoparticles of oil-in-water emulsion type, in suspension in PBS (10 mM, pH 7.3), were measured on a measuring system using a neodymium-vanadate, continuous-wave laser [Millennia Pro, Spectra-Physics, USA], (532 nm, 5 W)-pumped sapphire-titanium laser [Tsunami, Spectra-Physics, USA] (80 MHz, 100 femtoseconds), tunable to a wavelength of 700 nm to 1000 nm. Depending on the operating mode of this device, the laser is injected into a multimode optical fiber, used as excitatory fiber for the sample to be studied. A second (detection) optical fiber collects the fluorescence emitted or the laser scattering via a filtering system. The signal is measured by means of a photomultiplier tube [Hamamatsu, Japan] coupled to a TCSPC counting board [Becker&Hickel, Germany]. The latter is controlled by means of a sampled part (4%) of the laser signal (pulse train) via a rapid photodiode (PD) [Becker&Hickel, Germany] before injection into the optical fiber.
The measurements were carried out using a pulsed excitation wavelength of 740 nm. The fluorescence intensity (in arbitrary units) was measured in order to plot curves reflecting the fluorescence decay (fluorescence intensity (arbitrary units) expressed as a function of time (in ps)); curves not represented. […]

On to `CC[N+](CC)=c1ccc2nc3c(cc(N)c4ccccc43)oc-2c1.[O-][Cl+3]([O-])([O-])[O-]` [Nile Blue perchlorate], for which the “known quantum yield value of reference standard” value in data set [1] was 0.27.
In turn, `CCCCCCCCCCCCCCCCCCN1C(=CC=CC=CC2=[N+](CCCCCCCCCCCCCCCCCC)c3ccccc3C2(C)C)C(C)(C)c2ccccc21.[O-][Cl+3]([O-])([O-])[O-]` [DiD, 1,1′-dioctadecyl-3,3,3′,3′-tetramethylindodicarbocyanin perchlorate] came in with a Quantum yield in data set [2] of 0.29. In data set [3], the Emission stood at 665 nm and the Max. absorption amounted to 644 nm.
As for `CCCCCCCCCCCCCCCCCCN1/C(=C/C=C/C=C/C=C/C2=[N+](CCCCCCCCCCCCCCCCCC)c3ccccc3C2(C)C)C(C)(C)c2ccccc21.[I-]` [DiR, 1,1′-dioctadecyl-3,3,3′,3′-tetramethylindotricarbocyanin iodide], in data set [4], the “Lifetime of the DiR fluorophore in solution in methanol” value was 800 ps.
